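Values below derive from 48-hour exposures of cells grown in 96-well plates, with endpoints linearly interpolated between the two concentrations bracketing the appropriate inhibition level. Abbreviation: GI50, concentration required for 50% inhibition of growth. At the TGI there is no net growth.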
Tests used:
Test in all cases: DTP human tumour cell line panel, 48 h
[1] = test system: DMS 273 small cell lung
[2] = test system: NCI-H23 lung
[3] = test system: NCI-H460 lung
[4] = test system: OVCAR-5 ovarian
[5] = test system: OVCAR-8 ovarian
[6] = test system: NCI-H226 lung
[7] = test system: MALME-3M melanoma
[8] = test system: SK-MEL-2 melanoma
[9] = test system: DLD-1 colon
[10] = test system: MDA-MB-435

Row | SMILES | TGI [1] | TGI [2] | TGI [3] | TGI [4] | TGI [5] | TGI [6] | TGI [7] | TGI [8] | TGI [9] | GI50 [1] | GI50 [2] | GI50 [3] | GI50 [5] | GI50 [6] | GI50 [7] | GI50 [8] | GI50 [9] | TGI [10]
1 | COc1cc(/C=C(\C#N)C(=O)c2ccccc2)cc(OC)c1OC | > 100 µM | > 100 µM | > 100 µM | > 100 µM | > 100 µM | > 100 µM | > 100 µM | > 100 µM | > 100 µM | – | – | – | – | – | – | – | – | –
2 | O=C(NC(=Nc1ccccc1)SCCSC(=Nc1ccccc1)NC(=O)c1ccccc1)c1ccccc1 | > 100 µM | > 100 µM | > 100 µM | > 100 µM | > 100 µM | > 100 µM | > 100 µM | > 100 µM | > 100 µM | – | – | – | – | – | – | – | – | –
3 | Cc1nc2ccccc2c(=O)n1/N=C(\N=Nc1ccc(Cl)cc1)c1ccc(N(C)C)cc1 | > 100 µM | > 100 µM | > 100 µM | – | > 100 µM | – | – | – | > 100 µM | – | – | – | – | – | – | – | – | –
4 | O=C1N(c2ccccc2)C2(O)C(=O)c3ccccc3C2(O)N1c1ccccc1 (stereo not given) | > 100 µM | > 100 µM | > 100 µM | > 100 µM | > 100 µM | > 100 µM | > 100 µM | > 100 µM | > 100 µM | – | – | – | – | – | – | – | – | –
5 | N#CC1(C2CC(=O)N(c3ccccc3)C2=O)CCCCC1=O (stereo not given) | > 100 µM | > 100 µM | > 100 µM | > 100 µM | > 100 µM | > 100 µM | > 100 µM | – | > 100 µM | – | – | – | – | – | – | – | – | –
6 | CC(=O)NNc1nc(C)c(C(=O)NNC(=O)C(=O)Nc2ccc(C)cc2[N+](=O)[O-])s1 | > 100 µM | > 100 µM | > 100 µM | > 100 µM | > 100 µM | > 100 µM | > 100 µM | > 100 µM | > 100 µM | – | – | – | – | – | – | – | – | –
7 | Cc1cc(Br)ccc1N=NC1C(=O)ON=C1c1ccccc1 (stereo not given) | > 100 µM | > 100 µM | > 100 µM | > 100 µM | > 100 µM | > 100 µM | > 100 µM | > 100 µM | > 100 µM | – | – | – | – | – | – | – | – | –
8 | CC(=O)Nc1ccc(/C=C/C(=O)c2sc(-n3nc(-c4ccccc4)cc3-c3ccccc3)nc2C)cc1 | > 100 µM | > 100 µM | > 100 µM | – | > 100 µM | > 100 µM | > 100 µM | > 100 µM | > 100 µM | > 100 µM | > 100 µM | > 100 µM | > 100 µM | > 100 µM | > 100 µM | > 100 µM | > 100 µM | –
9 | COc1cc(Br)c(C2OCCCO2)cc1OCc1ccccc1 | > 100 µM | > 100 µM | > 100 µM | > 100 µM | > 100 µM | > 100 µM | – | > 100 µM | > 100 µM | – | – | – | – | – | – | – | – | –
10 | CCC[CH2][Sn]1([CH2]CCC)[O]C(=O)c2cccnc2[S]1 | 13.7 µM | 5.41 µM | 23.6 µM | – | 14.5 µM | 29.1 µM | 4.31 µM | 4.63 µM | 14.5 µM | 3.38 µM | 2.13 µM | 11.4 µM | 4.04 µM | 15.3 µM | 1.49 µM | 2.11 µM | 3.94 µM | –
11 | COc1ccc(Cc2c3cc(OC)c(OC)cc3cc[n+]2C)cc1 | – | > 40.2 µM | – | > 100 µM | > 48.6 µM | > 51.9 µM | > 60.3 µM | > 45.8 µM | > 26.9 µM | – | – | – | – | – | – | – | – | –
12 | COc1cc(CC2c3cc(OC)c(OC)cc3CCN2C)c(C(=O)O)cc1OC (stereo not given) | > 100 µM | > 100 µM | – | > 100 µM | > 100 µM | > 100 µM | > 100 µM | > 100 µM | > 100 µM | – | – | – | – | – | – | – | – | –
13 | CS(=O)c1cc(=O)c2ccccc2s1 (stereo not given) | 19.5 µM | 15.4 µM | 35 µM | 18.2 µM | 8.09 µM | 35.5 µM | 4.53 µM | 24.7 µM | 5.6 µM | – | – | – | – | – | – | – | – | 19 µM
14 | CCCCP1(=O)C=CC(Cl)=C(C)C1 (stereo not given) | – | > 100 µM | > 100 µM | > 100 µM | > 100 µM | – | > 100 µM | > 100 µM | > 100 µM | – | – | – | – | – | – | – | – | –
15 | CC1(C)OC2OC(/C=C/[N+](=O)[O-])C3OC(C)(C)OC3C2O1 (stereo not given) | 40.4 µM | 37.6 µM | 32.4 µM | 38.1 µM | 40.9 µM | 37.1 µM | 10.8 µM | 32.6 µM | 4.05 µM | – | – | – | – | – | – | – | – | –
16 | C=CC(C)(C)[C@@]12CC3C(=O)N[C@@H](Cc4ccccc4)C(=O)N3[C@@H]1N(C(C)=O)c1ccccc12 (stereo not given in full) | > 100 µM | > 100 µM | > 100 µM | > 100 µM | > 100 µM | > 100 µM | > 100 µM | > 100 µM | > 100 µM | – | – | – | – | – | – | – | – | –
17 | COC(=O)N1C=Cc2c(c(C)c3c([nH]c4ccccc43)c2C)C1C (stereo not given) | 39 µM | 36.2 µM | 70.3 µM | 34.5 µM | 39.8 µM | 35.7 µM | 36.3 µM | 34 µM | 32.7 µM | – | – | – | – | – | – | – | – | –
18 | Cc1c(Cl)ccc2[s+]snc12 | > 100 µM | > 100 µM | > 100 µM | > 100 µM | 57.1 µM | > 100 µM | > 100 µM | 77.3 µM | 62 µM | – | – | – | – | – | – | – | – | –
19 | C/C(=N\NC(N)=S)c1ccc(Oc2ccccc2)cc1 | 20.7 µM | 83.3 µM | 42.6 µM | – | 52.3 µM | – | – | – | 16.9 µM | – | – | – | – | – | – | – | – | –
20 | O=C1C(=C2C(=O)c3ccccc3[N+]2=O)N([O-])c2ccccc21 | 89.5 µM | 77.7 µM | 55.3 µM | > 100 µM | 50.4 µM | 81.4 µM | – | – | 88.6 µM | – | – | – | – | – | – | – | – | –
21 | O=c1ccn([C@@H]2C[C@H](CO)CS(=O)C2)c(=O)[nH]1 (stereo not given in full) | > 100 µM | > 100 µM | > 100 µM | – | > 100 µM | > 100 µM | > 100 µM | > 100 µM | > 100 µM | – | – | – | – | – | – | – | – | –
22 | CCn1c(O)c(C(=O)Nc2cccs2)c(=O)n(CC)c1=S | – | 30.5 µM | 34.5 µM | 61.5 µM | 60.2 µM | 56.8 µM | 38.6 µM | 32.8 µM | > 100 µM | – | – | – | – | – | – | – | – | –
23 | C[C@H](O)CCC(=O)c1ccoc1 | > 100 µM | > 100 µM | > 100 µM | > 100 µM | > 100 µM | > 100 µM | > 100 µM | > 100 µM | > 100 µM | – | – | – | – | – | – | – | – | –
24 | O=C(CC1(O)C(=O)Nc2ccc(Br)cc21)c1cccc([N+](=O)[O-])c1 (stereo not given) | > 100 µM | > 100 µM | > 100 µM | > 100 µM | > 100 µM | 82.5 µM | > 100 µM | > 100 µM | > 100 µM | – | – | – | – | – | – | – | – | –
25 | O=C(c1ccccc1)N1CCc2c([nH]c3ccccc23)C1 | > 100 µM | > 100 µM | > 100 µM | > 100 µM | > 100 µM | > 100 µM | > 100 µM | 71.2 µM | > 100 µM | – | – | – | – | – | – | – | – | –
26 | CCc1cccc(CC)c1NC1=CC(=O)C(=O)c2ccccc21 | 41.6 µM | 3.02 µM | 48.8 µM | 31 µM | 36.7 µM | 88.5 µM | 31.9 µM | 35.9 µM | 49.7 µM | – | – | – | – | – | – | – | – | –

Source: PubChem BioAssay (NCI)
